Experimental data published in US20040142887A1, “Antigen-polymer compositions” (priority 2002, published 2004).
In brackets after ≈: the same amount, converted by molar mass.

Legend:
[1] = not given; remark: listed apart in the source

SMILES: CC[C@H](C)[C@H](NC(=O)CNC(=O)[C@@H](NC(=O)[C@H](Cc1ccccc1)NC(=O)[C@H](CCCCN)NC(=O)[C@H](CO)NC(=O)[C@H](CC(N)=O)NC(=O)[C@H](C)NC(=O)[C@H](CCCCN)NC(=O)[C@@H](NC(=O)[C@H](Cc1ccc(O)cc1)NC(=O)[C@H](CCC(N)=O)NC(=O)[C@@H](N)CS)[C@@H](C)CC)[C@@H](C)CC)C(=O)N[C@H](C(=O)N[C@@H](CCC(=O)O)C(=O)N[C@@H](CC(C)C)C(=O)N[C@@H](CC(=O)O)C(=O)N[C@@H](CC(=O)O)C(=O)N1CCC[C@H]1C(=O)N[C@@H](CCCNC(=N)N)C(=O)N[C@@H](Cc1ccccc1)C(=O)N[C@@H](CCC(N)=O)C(=O)N[C@@H](CC(=O)O)C(=O)N[C@@H](CO)C(=O)N[C@@H](CO)C(=O)N[C@@H](CO)C(=O)N[C@@H](CO)C(=O)N[C@@H](CCCCN)C(=O)N[C@@H](C)C(=O)N1CCC[C@H]1C(=O)N1CCC[C@H]1C(=O)N1CCC[C@H]1C(=O)N[C@@H](CO)C(=O)N[C@@H](CC(C)C)C(=O)N1CCC[C@H]1C(=O)N[C@@H](CO)C(=O)N1CCC[C@H]1C(=O)N[C@@H](CO)C(=O)N[C@@H](CCCNC(=N)N)C(=O)N[C@@H](CC(C)C)C(=O)N1CCC[C@H]1C(=O)NCC(=O)N1CCC[C@H]1C(=O)N[C@@H](CO)C(=O)N[C@@H](CC(=O)O)C(=O)N[C@H](C(=O)N1CCC[C@H]1C(=O)N[C@H](C(=O)N[C@@H](CC(C)C)C(=O)N1CCC[C@H]1C(=O)N[C@@H](CCC(N)=O)C(=O)O)[C@@H](C)CC)[C@@H](C)O)[C@@H](C)O [CTP37-TT2]
- solubility: ~70 mg/mL (≈ 12.8 mM)
- stability to hydrolysis in solution ([1]; pH 1): stable to hydrolysis except when the pH was very low (1-2)
- peptide remaining soluble at acidic pH ([1]; pH 1.4): all peptides remained soluble
